From patent US20100227853A1, “INHIBITORS OF CYCLIC AMP PHOSPHODIESTERASES” (Trustees of Boston College, priority 2008, published 2010)
pEC50, pIC50: −log10 of the molar value.

How the values were obtained:
[1] = molecular target: T1, PDE2A (Mus musculus, UniProt Q922S4); assay: cAMP levels in yeast strain expressing PDE2A; assay type: cell-based, murine; conditions: 20 μM EHNA as compared to 200 μM
T1 construct: targets used in the assays are full-length proteins (as opposed to simply the catalytic domain); expressed in transfected cells; host or cells: Schizosaccharomyces pombe, PDE gene integrated in place of cgs2 (strains LWP371, LWP364)
T1 sequence (Q922S4 1-939): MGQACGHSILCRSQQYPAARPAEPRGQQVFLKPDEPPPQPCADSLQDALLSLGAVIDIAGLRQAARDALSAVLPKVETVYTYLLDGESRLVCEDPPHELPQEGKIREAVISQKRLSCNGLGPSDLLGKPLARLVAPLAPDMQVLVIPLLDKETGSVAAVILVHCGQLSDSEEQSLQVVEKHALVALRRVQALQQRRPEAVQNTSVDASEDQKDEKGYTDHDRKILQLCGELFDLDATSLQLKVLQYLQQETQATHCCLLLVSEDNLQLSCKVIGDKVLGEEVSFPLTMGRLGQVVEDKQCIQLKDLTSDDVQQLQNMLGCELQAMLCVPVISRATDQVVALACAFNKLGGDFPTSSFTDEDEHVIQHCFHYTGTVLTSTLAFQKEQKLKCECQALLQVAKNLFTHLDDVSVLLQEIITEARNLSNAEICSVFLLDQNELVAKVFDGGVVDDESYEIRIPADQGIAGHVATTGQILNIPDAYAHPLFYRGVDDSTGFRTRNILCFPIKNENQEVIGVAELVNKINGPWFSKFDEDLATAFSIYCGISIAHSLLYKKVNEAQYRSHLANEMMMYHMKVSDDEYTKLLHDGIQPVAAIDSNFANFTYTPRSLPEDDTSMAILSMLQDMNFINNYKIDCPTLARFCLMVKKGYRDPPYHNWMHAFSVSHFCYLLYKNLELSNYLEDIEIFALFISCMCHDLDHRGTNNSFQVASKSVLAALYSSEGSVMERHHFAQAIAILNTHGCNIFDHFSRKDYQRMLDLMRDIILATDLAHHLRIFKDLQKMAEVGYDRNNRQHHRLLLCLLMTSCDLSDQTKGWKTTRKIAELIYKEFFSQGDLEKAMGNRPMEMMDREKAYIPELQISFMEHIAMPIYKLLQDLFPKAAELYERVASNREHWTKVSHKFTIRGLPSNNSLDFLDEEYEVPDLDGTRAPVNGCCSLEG
Description: (§1) Values represent the average and SD of two or three independent experiments. […] The strains used are as in FIG. 5A, together with strain CHP1141 (PDE8A). Values represent the average and SD of two or three independent experiments.
(§2) β-galactosidase assays and characterization of 5FOA-sensitivity were carried out as previously described^10. cAMP assays were performed on exponential phase cells grown in EMM complete medium (3% glucose), using the Assay Designs cAMP EIA kit, according to manufacturer's instructions (Assay Designs, Ann arbor, Mich.).
(§3) Thus, PDE inhibition can be indirectly quantitated by measuring the effect of a compound on cAMP levels in target yeast strains.

[2] = molecular target: T1, PDE2A; assay: fbp1-lacZ β-galactosidase reporter assay, PDE2A strain; assay type: cell-based, murine; conditions: strain LWP367 (PDE2A)
Description: as §2
(§4) The effect of known PDE inhibitors on the expression of the fbp1-lacZ fusion in murine PDE-expressing strains was tested. […] For Table 4 β-galactosidase activity was determined from 3 to 4 independent exponential phase cultures. The average±SD represents specific activity per milligram of soluble protein.

[3] = molecular target: T2, Cgs2 (Schizosaccharomyces pombe, UniProt P36599); assay: fbp1-lacZ β-galactosidase reporter assay, Cgs2 strain; assay type: cell-based, S. pombe; conditions: strain CHP861 (Cgs2)
T2 construct: expressing either the wild-type S. pombe Cgs2^+ PDE; endogenous in cells; host or cells: Schizosaccharomyces pombe strain CHP861
Description: as §2, §4

[4] = system: Cgs2-2; assay: fbp1-lacZ β-galactosidase reporter assay, Cgs2-2 strain; assay type: cell-based, S. pombe; conditions: strain LWP98 (Cgs2-2)
Description: as §2, §4

[5] = molecular target: T3, PDE8A (Mus musculus, UniProt O88502); assay: fbp1-lacZ β-galactosidase reporter assay, PDE8A strain; assay type: cell-based, murine; conditions: strain DDP13 (PDE8A)
T3 construct: targets used in the assays are full-length proteins (as opposed to simply the catalytic domain); expressed in transfected cells; host or cells: Schizosaccharomyces pombe, PDE gene integrated in place of cgs2 (strains CHP1141, DDP13)
T3 sequence (O88502 1-823): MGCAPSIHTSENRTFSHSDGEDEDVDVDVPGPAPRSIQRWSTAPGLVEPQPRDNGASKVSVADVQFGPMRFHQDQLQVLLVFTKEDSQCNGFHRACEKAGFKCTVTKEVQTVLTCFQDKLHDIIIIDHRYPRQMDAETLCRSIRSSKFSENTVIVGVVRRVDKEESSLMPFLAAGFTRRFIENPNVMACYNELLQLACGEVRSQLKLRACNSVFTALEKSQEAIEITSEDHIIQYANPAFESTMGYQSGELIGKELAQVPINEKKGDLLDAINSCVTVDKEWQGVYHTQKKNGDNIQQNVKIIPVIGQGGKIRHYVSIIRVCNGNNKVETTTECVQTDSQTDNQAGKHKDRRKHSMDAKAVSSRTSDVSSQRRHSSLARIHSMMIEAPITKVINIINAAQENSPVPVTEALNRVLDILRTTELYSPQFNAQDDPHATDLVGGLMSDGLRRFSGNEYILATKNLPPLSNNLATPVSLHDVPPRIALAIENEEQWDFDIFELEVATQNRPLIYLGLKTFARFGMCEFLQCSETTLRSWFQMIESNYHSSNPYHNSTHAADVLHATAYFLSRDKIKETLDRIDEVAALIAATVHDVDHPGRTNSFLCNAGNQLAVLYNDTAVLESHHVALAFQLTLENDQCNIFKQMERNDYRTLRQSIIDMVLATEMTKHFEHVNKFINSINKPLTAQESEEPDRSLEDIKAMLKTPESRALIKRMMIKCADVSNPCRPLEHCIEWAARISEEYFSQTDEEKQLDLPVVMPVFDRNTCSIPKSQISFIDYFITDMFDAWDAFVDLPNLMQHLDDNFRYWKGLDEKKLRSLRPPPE
Description: as §2, §4

[6] = system: U937 cells; assay: TNF alpha release by LPS-treated U937 cells; assay type: cell-based
[7] = molecular target: PDE7A (Homo sapiens, UniProt Q13946); assay: 5FOA growth assay in fission yeast strain expressing PDE7A; assay type: cell-based; set-up: targets used in the assays are full-length proteins (as opposed to simply the catalytic domain); expressed in transfected cells; host or cells: Schizosaccharomyces pombe, PDE gene integrated in place of cgs2; conditions: OD600 0.6; read-out: ED50 for 5FOA growth assays, PDE7A
Procedure, shortened: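 Growth stimulation, reported as composite Z scores, was read as OD600 after 48 h at 30 °C in 5FOA medium. Before this, reporter (fbp1-ura4) yeast were grown at 30 °C in EMM with 0–2.5 mM cAMP or 0.5/1.0 mM cGMP to repress the reporter, then exposed to 100 nl pinned compound (stocks generally 10 mM).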

[8] = molecular target: T4, PDE7B (Homo sapiens, UniProt Q9NP56); assay: in vitro enzyme assay, PDE7B catalytic domain from E. coli, hydrolysis of cAMP to AMP; assay type: biochemical; set-up: The PDE7B catalytic domain was expressed in and purified from E. coli; made in house; host or cells: E. coli; conditions: AC200 = [Compound] that doubles PDE activity; read-out: IC50 (or AC200), PDE7B
Description: The PDE7B catalytic domain was expressed in and purified from E. coli and tested for activity in an in vitro enzyme assay, measuring the hydrolysis of cAMP to AMP. Four dilutions of the enzyme preparation were tested at various compound concentrations (X axis). The percent of cAMP hydrolyzed is plotted on the Y axis.
Target sequence in this assay (Q9NP56 97-420 limits assumed, species assumed): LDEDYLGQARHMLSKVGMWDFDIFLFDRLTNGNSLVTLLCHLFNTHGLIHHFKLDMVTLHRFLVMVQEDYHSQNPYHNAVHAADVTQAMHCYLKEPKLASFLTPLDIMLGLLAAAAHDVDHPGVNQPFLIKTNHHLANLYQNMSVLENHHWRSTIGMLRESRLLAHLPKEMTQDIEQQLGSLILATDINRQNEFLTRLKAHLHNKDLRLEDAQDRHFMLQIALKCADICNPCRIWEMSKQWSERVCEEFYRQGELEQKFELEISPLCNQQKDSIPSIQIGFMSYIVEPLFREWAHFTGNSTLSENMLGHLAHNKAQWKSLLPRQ

[9] = system: PDE2A, PDE4A, PDE4B, Cgs2; assay: Parallel high throughput 5FOA growth screens of bioactive libraries; assay type: cell-based, murine PDEs; yeast Cgs2; conditions: 3,120 bioactive compounds, average 20 μM
Description: High throughput drug screens were carried out at the Broad Institute's Chemical Biology Program screening facility (Broad Institute, Cambridge, Mass.). Depending upon the strain, cultures were pregrown to exponential phase in EMM complete medium containing from 0.5 to 2.5 mM cAMP to repress fbp1-ura4 transcription. […] Starting cell concentrations ranged from 0.5×10^5 to 4×10^5 cells/ml depending on the screening strain. […] Other positive control dishes contained 5 mM cAMP in the 5FOA medium. Cultures were grown for 48 hours at 30° C., sealed in an airtight container with moist paper towels to prevent evaporation. Optical densities (OD600) of cultures were measured using a microplate reader. Bioinformatic analysis of the results to determine composite Z scores was performed as previously described^30, 31.

[10] = molecular target: T4, PDE7B; assay: 5FOA growth assay in fission yeast strain expressing PDE7B; assay type: cell-based; set-up: targets used in the assays are full-length proteins (as opposed to simply the catalytic domain); expressed in transfected cells; host or cells: Schizosaccharomyces pombe; conditions: OD600 0.6; read-out: ED50 for 5FOA growth assays, PDE7B
Description: PDE inhibition allows growth in 5FOA medium as measured by optical density after 48 hours incubation at 30° C. Compound BC12 and six structural analogs were tested for growth stimulation.
Cells were pregrown in EMM medium [MP Biomedicals (Solon, Ohio), 3% glucose, filter-sterilized to avoid carmelization, which would introduce variability into the optical density of the medium] containing from 0 mM to 2.5 mM cAMP (or either 0.5 mM or 1.0 mM cGMP). This was to repress expression of the fbp1-ura4 reporter prior to exposure of cells to 5FOA medium. Cells were grown at 30° C. to exponential phase (approximately 10^7 cells/ml). Cells were collected by centrifugation and resuspended in 5FOA medium, and 25 μl were transferred to 384-well microtiter dishes (untreated, with flat clear bottoms) that had been pre-filled with 25 μl 5FOA medium and pre-pinned with 100 nl of compounds (stock solutions were generally 10 mM). Starting cell concentrations ranged from 0.5×10^5 to 4×10^5 cells/ml depending on the screening strain. […] Other positive control dishes contained 5 mM cAMP in the 5FOA medium for PDEs that lack appropriate control compounds. Cultures were grown for 48 hours at 30° C., sealed in an airtight container with moist paper towels to prevent evaporation. Optical densities (OD600) of cultures were measured using a microplate reader. Bioinformatic analysis of the results to determine composite Z scores was performed as previously described (1, 3).
Target sequence in this assay (Q9NP56 whole entry, species assumed, the tested form may be a part): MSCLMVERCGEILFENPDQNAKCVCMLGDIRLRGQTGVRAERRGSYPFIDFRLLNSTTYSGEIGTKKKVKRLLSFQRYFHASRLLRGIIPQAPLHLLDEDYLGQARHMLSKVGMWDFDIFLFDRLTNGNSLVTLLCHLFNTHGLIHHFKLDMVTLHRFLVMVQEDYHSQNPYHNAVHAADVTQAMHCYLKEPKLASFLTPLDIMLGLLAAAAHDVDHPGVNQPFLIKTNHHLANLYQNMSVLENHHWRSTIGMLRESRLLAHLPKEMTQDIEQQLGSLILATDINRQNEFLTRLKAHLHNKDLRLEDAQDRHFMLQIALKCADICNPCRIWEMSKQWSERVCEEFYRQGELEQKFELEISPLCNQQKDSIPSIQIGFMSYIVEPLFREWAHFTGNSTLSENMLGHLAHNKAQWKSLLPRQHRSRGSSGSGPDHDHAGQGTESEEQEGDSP

[11] = molecular target: T3, PDE8A; assay: cAMP levels in yeast strain expressing PDE8A; assay type: cell-based, murine; conditions: rolipram treatment
Description: as §1, §2, §3

T2 sequence (P36599 whole entry): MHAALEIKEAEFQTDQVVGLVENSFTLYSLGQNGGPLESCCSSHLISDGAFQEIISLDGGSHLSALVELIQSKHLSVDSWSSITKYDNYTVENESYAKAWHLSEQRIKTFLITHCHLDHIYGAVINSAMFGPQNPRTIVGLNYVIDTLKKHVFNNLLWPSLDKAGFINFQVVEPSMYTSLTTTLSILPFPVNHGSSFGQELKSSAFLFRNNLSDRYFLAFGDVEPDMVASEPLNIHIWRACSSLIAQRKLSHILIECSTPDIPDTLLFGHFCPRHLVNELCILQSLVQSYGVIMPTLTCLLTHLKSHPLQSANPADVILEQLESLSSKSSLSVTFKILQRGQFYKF
Chain of PDE7A (Q13946 whole entry, the tested form may be a part): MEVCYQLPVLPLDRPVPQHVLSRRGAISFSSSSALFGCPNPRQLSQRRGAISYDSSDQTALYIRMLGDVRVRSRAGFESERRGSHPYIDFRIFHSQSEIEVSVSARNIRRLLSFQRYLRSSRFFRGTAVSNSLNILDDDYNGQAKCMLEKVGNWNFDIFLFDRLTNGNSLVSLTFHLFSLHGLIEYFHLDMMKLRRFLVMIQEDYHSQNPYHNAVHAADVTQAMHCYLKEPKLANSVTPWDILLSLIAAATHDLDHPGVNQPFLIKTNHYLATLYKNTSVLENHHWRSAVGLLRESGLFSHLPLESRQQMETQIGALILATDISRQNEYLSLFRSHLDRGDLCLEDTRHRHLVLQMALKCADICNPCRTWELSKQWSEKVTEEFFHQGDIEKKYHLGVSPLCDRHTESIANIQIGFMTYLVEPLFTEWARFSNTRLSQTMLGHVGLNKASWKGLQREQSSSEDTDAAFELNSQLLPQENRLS

## CCCCCC[C@@H]([C@@H](C)O)n1cnc2c(N)ncnc21 (racemic) [EHNA]
[1]
  inhibition of PDE2A judged by cAMP levels: partial inhibition
[2]; 5 μM EHNA
  β-galactosidase activity: 473 ± 19
[2]; 20 μM EHNA
  β-galactosidase activity: 197 ± 51
[2]; 200 μM EHNA
  β-galactosidase activity: 45 ± 3

## COc1ccc(C2CNC(=O)C2)cc1OC1CCCC1 (stereo not drawn) [Rolipram, reference compound]
[3]; 50 μM Rolipram, specific activity per milligram of soluble protein, average ± SD
  β-galactosidase activity: 1807 ± 446
[3]; 100 μM Rolipram
  β-galactosidase activity: 1784 ± 429
[4]; 50 μM Rolipram
  β-galactosidase activity: 19 ± 9
[4]; 100 μM Rolipram
  β-galactosidase activity: 20 ± 11
[5]; 50 μM Rolipram
  β-galactosidase activity: 253 ± 46
[5]; 100 μM Rolipram
  β-galactosidase activity: 237 ± 67
[6]; 3 HOURS
  TNF: 3497 pg/mL
  TNF alpha (EtoH = 100.0): 86.2
  TNF, % EtOH cntrl: 72.4%
[6]; 20 HOURS
  TNF: 9362 pg/mL
  TNF alpha (EtoH = 100.0): 86.3
  TNF, % EtOH cntrl: 68.4%
[7]
  pEC50: < 3.70
[8]
  pIC50: < 5.70
[9]
  hit in high throughput screens (promotes 5FOA^R growth), in words: only affected the PDE4A- and PDE4B-expressing strains
[10]
  pEC50: < 3.70
[11]
  cAMP levels in PDE8A strain: completely insensitive
